# Data: patent US9512168B2, “Compound, composition and method for treating and/or ameoliorating kidney disease” (Trineo Biotechnology Co. LTD., priority 2014, dated 2016)
# Legend:
# MDCK cells = assay: Cisplatin induced in vitro kidney cell apoptosis (mitochondria membrane potential, DiOC6 staining); format: cell-based, canine; conditions: FIG. 1A
# Experimental: Madin-Darby canine kidney (MDCK) cells (1.5×10^5 cells/mL) were cultured and maintained in Dulbecco's modified Eagle medium (DMEM) supplemented with 10% fetal bovine serum (FBS), 100 units/mL penicillin, […] streptomycin, 2 mM L-glutamine, non-essential amino acids and sodium pyruvate, and maintained in 5% CO2 at 37° C. until reached 80% confluence, then were subject to cell passages.
# MDCK cells were cultured in according to procedures described in the “Materials and Methods” section. To start the experiment, MDCK cells were first incubated with 50 μM cisplatin for 4 hrs, then various concentrations of the compound of formula (I) ([…] or 100 μg/mL) or the YKII-10 composition of example 1.2 (25 to 100 μg/mL) were given to cisplatin-treated cells and further incubated for another 24 hrs. Mitochondria membrane potentials were then measured by staining the live cells with fluorescent dyes (e.g., 50 nM DiOC6), in which 50 nM DiOC6 were added to cells and incubated at 37° C. for 30 min. The cells were then washed twice with phosphate buffer solution before subjecting to microscopy analysis using the inverted fluorescent microscope. […] Results are illustrated in FIGS. 1A and 1B.
# Blb/c mice = assay: Lipopolysaccharide (LPS) induced in vivo kidney inflammation, urine protein; conditions: oral 100 mg/Kg; LPS 2.5 mg/Kg/day i.p. for 5 days; urine on day 5 and day 10; FIG. 3
# Experimental: Blb/c mice were kept in pathogen-free environment under 12:12 light-dark cycle with food (laboratory rodent diet 5001 purchased from PMI Nutrition International Inc. MO, USA) and water (i.e., distilled water) provided ad libitum, ambient temperature and relative humidity were respectively set at 22±3° C. and 50±20%. All procedures involving animal studies of the present disclose e comply with the “Guideline for the Care and Use of Laboratory Animals” issued by The Chinese-Taipei Society of Laboratory Animal Sciences.
# In this example, to evaluate the therapeutic or prophylactic function of the composition of example 1.2, animals were first injected intraperitoneally with lipopolysaccharide (LPS) to induce in vivo kidney inflammation before being subject to the treatment of the composition of example 1.2.
# Blb/c mice (6 weeks old) were randomly assigned to two groups, and injected intraperitoneally with lipopolysaccharide (LPS, 2.5 mg/Kg/day) for 5 consecutive days so as to induce kidney inflammation. […] Urine samples were respectively collected on the fifth and the tenth day after the experiment started, and analyzed for the level of urine protein therein. […]
compound,measurement,setting,value
C[C@H](CCC(=O)O)[C@H]1C[C@H](O)[C@@]2(C)C3=C(C(=O)C[C@]12C)[C@@]1(C)CCC(=O)C(C)(C)[C@@H]1C[C@@H]3O [compound of formula (I)],reversal of cisplatin-induced apoptosis of MDCK cell,MDCK cells; 50 μg/mL or 100 μg/mL for 24 hrs after 50 μM cisplatin for 4 hrs,capable of reversing
same,recovery on the membrane potential,"MDCK cells; 100 μg/mL for 24 hrs after 50 μM cisplatin for 4 hrs, MDCK cells",about 80%
same,urine protein level,Blb/c mice,effective in reducing
